Data on one molecule can be found in patent US9872871B2, “Compositions for use in restoring muscle glycogen and/or muscle mass” (Aarhus Universitet, priority 2013, dated 2018).

SMILES strings stand for the structures. Entries after “also recorded” stand apart in the source; their conditions may differ.

In test [1] the test system is muscle glycogen (vastus lateralis). The experiment in a line: Muscle glycogen resynthesis after glycogen depleting exercise, double blinded crossover, vastus lateralis biopsies. The class given is in vivo, human. The procedure: In this example, the effect is examined of a 500 mg steviol glycosides supplementation together with post-exercise oral carbohydrate (1.5 g/kg/h), versus an isocaloric carbohydrate supplementation on muscle glycogen resynthesis, following glycogen depletive exercise. Fifteen trained male cyclists performed two cycling sessions of 120 min at 75-85% Vo2-max, with the post exercise supplementation of stevioside organized in a double blinded crossover study design. Over the course of a 4 h of recovery period, muscle biopsies were obtained from the vastus lateralis immediately and 240 minutes after exercise, to measure post-recovery glycogen concentration and rate of post-exercise glycogen synthesis. In order to measure plasma glucose, insulin and glucagon, blood samples were drawn before and immediately after exercise, and at every half hour during the four hour recovery period. Results A significant increase in total glycogen concentration was seen following the 4 hour of recovery in both trials (p<0.005). […] Plasma glucose and glucagon levels also show a reduction when stevioside was supplied.
In the present study, a double blinded crossover protocol was used to examine the effect of post exercise carbohydrate ingestion supplemented with or without stevioside supplementation on muscle glycogen resynthesis. The double blinded crossover protocol was chosen to ensure a satisfactory statistical power with the relative few subjects that were included in this study. After completing a preliminary anthropometric assessment incremental and VO2-max test, each subject completed two randomized experimental trials; separate by at least seven days.
After the preliminary testing, each subject underwent two experimental trials, with the experimental supplementation randomized using a randomizing software (Research randomizer) and blinded to both subject and researchers by supplementing the stevioside concealed in capsules. […] The two experimental trials were separated by at least seven days. The subjects were instructed to refrain from any intense exercise 24 hour before both the preliminary test and the two experimental trials. […]
As illustrated the table below, the subjects arrived fasting at 8:00 o'clock a.m. in the lab and completed a glycogen depletion ride consisting of 120 minutes cycling at 75%-80% of their maximal heart rate reserve, followed by a series of five 30 seconds sprint interval at an all-out intensity interspaced with a rest period of 60 seconds. Workload and target heart rate zone was calculated for the subjects, based on the results presented in table 1, performance characteristics of the subjects. […]

For the next test, the system named is isolated mouse islets. The following applies: effect faded at normal to low glucose; cited from earlier work.
Test [2] can be described thus: Plasma glucose, insulin and glucagon during the four hour recovery period. The class given is in vivo, human. The procedure:
Before the subjects started the depletion ride, blood was drawn from a medial antecubital vein to establish baseline values for plasma glucose, plasma insulin and plasma glucagon concentrations. After completion of the depletion ride and 240 minutes later, a muscle biopsy was obtained from the vastus lateralis muscle by the use of a percutaneous needle biopsy technique, using the protocol described by Bergström (Bergström 1962). The biopsy sampling was performed by a trained physician with extensive experience in sterile technique. An area of anterolateral side of one thigh was disinfected with chlorhexidine, and local anesthetized with lidocaine (10 mg/ml) in the skin, subcutaneous tissue and muscle fascia. After the area was covered with a sterile hole-piece, a small incision in the skin and fascia of the leg was made with a scalpel and a tissue sample was taken with a Bergström biopsy needle with the aid of suction. The biopsy procedure was managed by Mikkel Overgaard, and assisted by Søren Lavrsen. Approx. 100 mg of muscle tissue was taken from the vastus lateralis muscle. The muscle tissue samples were weighted and immediately placed in liquid nitrogen, and then transferred to a freezer (−80° C.) for storage until analysis for determination of glycogen concentration would be made. At the same time a polyethylene catheter was placed subcutaneous into a medial antecubital vein from which blood samples were collected. 10 ml of blood were drawn for the analysis of plasma glucose and insulin, and 7.5 ml of blood was drawn for the analysis of plasma glucagon. After the first sample at 0 minutes, blood was drawn at 30, 60, 90, 120, 150, 180, 210 and 240 minutes after the subject has finished the glycogen depletion protocol. Blood samples were centrifuged before 2 ml of the plasma was pipetted into standard analyzing tubes and stored at −80° C. for later analysis.
Immediately after the muscle biopsy procedure and initial blood sampling, the subjects ingested either 500 mg of steviol glucosides, or placebo (500 mg of corn starch) Supplementation, together with 1.5 gr/body weight of liquid maltodextrine solution (Pure Power, Harre Denmark). The sequence of stevioside and placebo supplementation was randomized in a balanced order. At 60, 120 and 180 minutes after termination of the depletion ride, the subjects received another carbohydrate rich feeding (1.5 gr/body weight/hour of Carbohydrates/kg body weight/hour), in accordance with the guidelines recommended by (Ivy et al. 1988).
Blood samples were collected for the measurements for measurement of the plasma glucose, insulin and glucagon values before initiation of the glycogen depletion protocol and at 0, 30, 60, 90, 120, 150, 180, 210 and 240 minutes after the subject has finished the glycogen depletion protocol.
10 ml of blood were drawn for the analysis of plasma glucose and insulin, and 7.5 ml of blood was drawn for the analysis of plasma glucagon. All blood was drawn from the antecubital vein. For glucose and insulin the drawn blood was collected in lilthium heparinized tubes (Venosafe—plasma VF-109SHL, Terumo Europe N.V., Leuven, Belgium). For glucagon the drawn blood was collected in EDTA treated tubes (Venosafe). With all samples the tubes were turned over 10 times, to avoid coagulation, before they were centrifuged at 1500 G for 10 minutes at 5° C. using a Sigma 3-18 centrifuge (Sigma Laborzentrifugen GmbH, Osterode am Harz, Germany). 2 ml of the plasma was pipetted into standard analyzing tubes and stored at −80° C. for later analysis. After all testing sessions were finished; all blood samples were packed, according to regulations, in an icebox at […], and transported to the Diabetes laboratory 4, at Aarhus University Hospital, Tage-Hansens Gade (Aarhus, Denmark) for analysis of plasma glucose, insulin and glucagon concentration. […]

The conditions of test [3]: type 2 diabetic subjects, cited from earlier work.
The conditions of test [4]: type II diabetic patients, cited from earlier work.
The conditions of test [5]: Wistar rats, 20 mg/kg orally daily for 5 days, cited from earlier work.
Test [6] relates to skeletal muscle glucose transport system. To be noted: soleus and epitrochlearis muscles of lean and obese Zucker rats; dose-dependent; cited from earlier work.
The conditions of test [7]: lean and obese Zucker rats; 200 or 500 mg/kg by gavage; cited from earlier work.

Turning to `C=C1C[C@@]23CC[C@H]4[C@@](C)(CCC[C@@]4(C)C(=O)O[C@@H]4O[C@H](CO)[C@@H](O)[C@H](O)[C@H]4O)[C@@H]2CC[C@]1(O[C@@H]1O[C@H](CO)[C@@H](O)[C@H](O)[C@H]1O[C@@H]1O[C@H](CO)[C@@H](O)[C@H](O)[C@H]1O)C3` [stevioside, Stevioside], the “increase of glycogen resynthesis rate compared to placebo” value in test [1] (4 h recovery, 500 mg orally with carbohydrate) came out at 35%. For the same molecule, in test [1] (4 h recovery, 500 mg steviol glycosides orally with carbohydrate 1.5 g/kg/h, mean±SE, placebo 27.96±2.6), the “glycogen resynthesis rate (rate of glycogen repletion)” value is 37.84 ± 3.72 mmol/kg/h. This molecule had a muscle glycogen concentration in test [1] (240 minutes after completion of the depletion protocol, placebo 246.4±20) of 281.5±29 mmol/kg/dw. For the same molecule, the “effect on post-exercise muscle glycogen resynthesis” value in test [1] (four hour recovery period, in addition to carbohydrate, p<0.022) is “increase muscle glycogen resynthesis significantly”. In addition, the insulin release entry in the test with isolated mouse islets is “glucose-dependent insulin release”. Further, the “time of second plasma insulin peak concentration” value in test [2] (after third CHO feeding at 120 minutes, placebo at 150) was found to be 180 min. The “difference in plasma insulin concentration between stevioside and control (iAUC)” value in test [2] (any times during the recovery period, p=0.95) is listed as “no significant difference”. For the same molecule, the “plasma glucagon concentration (area under the curve) compared to placebo” value in test [2] (four hour recovery period) is “reduction”; in test [2] (four hour recovery period, listed as stevia) it was “clearly reduced”. The “plasma glucose response (iAUC) compared to placebo” value in test [2] (four hour recovery period, not statistically significant) is recorded as “reduction; also recorded: lower”. For the same molecule, in test [2] (four hour recovery period, placebo 55790±12660), the “plasma insulin, mean area under the curve” value was determined as 56720±11950 ng/ml*4 hours. Further, the “suppression of postprandial blood glucose level” value in test [3] (1 g stevioside with standard meal vs maize starch) is 18%. For the same molecule, in test [3] (1 g stevioside with standard meal), the circulating insulin levels entry is on record as “tended to be increased”. Also, the “postprandial glucagon like peptide-1 level” value in test [4] (1 g orally) is recorded as “significantly reduced”. In addition, the insulin response result in test [4] (1 g orally, not statistically significant) is listed as “tended to stimulate insulin response”. For the same molecule, the “reduction of post prandial blood glucose response compared to placebo” value in test [4] (1 g stevioside orally with standard meal) was 18.5%. The “glucose levels before the glucose test compared to control group” value in test [5] was “no significant decrease”. The “glucose levels under increased loading during the glucose test” value in test [5] (stevioside alone) is “conferred beneficial effects”. Moreover, in test [6], the “insulin action on skeletal muscle glucose transport system” value is “improves the insulin action”. Also, the “fasting plasma glucose and insulin” value in test [7] is recorded as “did not significantly affect”.
